8 compounds from publication PMC11492426, “Design, synthesis, and biological evaluation of novel quinoline-based EGFR/HER-2 dual-target inhibitors as potential anti-tumor agents” (RSC Advances, 2024) can be followed below.

For data set [1], the system named is Panc-1 pancreatic cancer cell line. In words: Antiproliferative assay, Panc-1. Type of data set: cell-based. Particulars: Homo sapiens; Panc-1 pancreatic cancer cells; read-out: Antiproliferative activity IC50 ± SEM, Panc-1.
A short description of data set [2]: Cell viability assay (MTT) on MCF-10A normal cells. It is filed as cell-based. The conditions noted are these: human, MCF-10A mammary gland epithelial normal cells, MCF-10A cells, four-day incubation. On the procedure:
The impact of compounds 3a–h and 5a–d on cell viability was evaluated using the human mammary (MCF-10A) gland epithelium normal cell line. The MTT assay was used to evaluate the cell viability of 3a–h and 5a–d after a four-day incubation period on MCF-10A cells.[46] Refer to Appendix A for more details.
The effect of new compounds 3a–h and 5a–d on cell viability was evaluated using the MCF-10A (human mammary gland epithelium) normal cell line.
4.2. Biological evaluation
4.2.1 Cell Viability assay (MTT assay)
MTT assay was performed to investigate the effect of the synthesized compounds on mammary epithelial cells (MCF-10A). The cells were propagated in medium consisting of Ham's F-12 medium/ Dulbecco's modified Eagle's medium (DMEM) (1:1) supplemented with 10% foetal calf serum, 2 mM glutamine, insulin (10 μg/mL), hydrocortisone (500 ng/mL) and epidermal growth factor (20 ng/mL). Trypsin ethylenediamine tetra acetic acid (EDTA) was used to passage the cells after every 2-3 days. 96-well flat-bottomed cell culture plates were used to seed the cells at a density of 10^4 cells mL-1. The medium was aspirated from all the wells of culture plates after 24 h followed by the addition of synthesized compounds (in 200 μL medium to yield a final concentration of 0.1% (v/v) dimethyl sulfoxide) into individual wells of the plates. Four wells were designated to a single compound. The plates were allowed to incubate at 37°C for 96 h. Afterwards, the medium was aspirated and 3-[4,5-dimethylthiazol-2-yl]-2,5-diphenyltetrazolium bromide (MTT) (0.4 mg/mL) in medium was added to each well and subsequently incubated for 3 h. The medium was aspirated and 150 μL dimethyl sulfoxide (DMSO) was added to each well. The plates were vortexed followed by the measurement of absorbance at 540 nm on a microplate reader. The results were presented as inhibition (%) of proliferation in contrast to controls comprising 0.1% DMSO.

The subject of data set [3] is HT-29 colon cancer cell line. Kind of data set: Antiproliferative assay, HT-29. It is filed as cell-based. The conditions noted are these: Homo sapiens; HT-29 colon cancer cells; read-out: Antiproliferative activity IC50 ± SEM, HT-29.
The test system of data set [4] is MCF-7 breast cancer cell line. Kind of data set: Antiproliferative assay, MCF-7. Type of data set: cell-based. The conditions noted are these: Homo sapiens, MCF7; MCF-7 breast cancer cells; read-out: Antiproliferative activity IC50 ± SEM, MCF-7.
Data set [5] deals with four human cancer cell lines (A-549, MCF-7, Panc-1, HT-29). Kind of data set: Antiproliferative assay, average over four cancer cell lines. It is filed as cell-based. Particulars: average IC50 over the four cancer cell lines.
The subject of data set [6] is A-549 lung cancer cell line. Kind of data set: Antiproliferative assay, A-549. Type of data set: cell-based. Particulars: Homo sapiens, A549; A-549 lung cancer cells; read-out: Antiproliferative activity IC50 ± SEM, A-549.

A word on the IC50: it is the concentration at which inhibition is half-maximal. A word on the viability: it is a read-out of living cells in per cent, often relative to untreated cells. The low end stands for a greater loss of cells, the high end for better survival. In general, melting point refers to the temperature, or range, at which the solid turns liquid. What is called GI50 is the concentration at which growth is held to half of that of the control. Low values mean more potent growth inhibition, high ones less potent growth inhibition.

As to `O=c1[nH]c2ccccc2c(O)c1/C=N/c1nc(-c2ccccc2)n[nH]1` [Compound 3a, (E) 4-hydroxy-3-(((3-phenyl-1H-1,2,4-triazol-5-yl)imino)methyl)quinolin-2(1H)-one], the melting point was 310 to 312 °C. Also, the IC50 in data set [1] is 74 ± 7 nM. This compound returned a viability at 96 h, 50 µM in data set [2] of 89%. Besides, the IC50 in data set [3] was 74 ± 7 nM. In addition, the IC50 in data set [4] was 69 ± 6 nM. The GI50 in data set [5] (Homo sapiens) was determined as 72 nM. Besides, the IC50 in data set [6] stood at 72 ± 7 nM.
The compound `Cc1ccc2[nH]c(=O)c(/C=N/c3nc(-c4ccccc4)n[nH]3)c(O)c2c1` [Compound 3b, (E) 4-hydroxy-6-methyl-3-(((3-phenyl-1H-1,2,4-triazol-5-yl)imino)methyl)quinolin-2(1H)-one] came in with a melting point of 325 to 327 °C. In addition, the IC50 in data set [1] came out at 70 ± 6 nM. Further, the viability at 96 h, 50 µM in data set [2] was determined as 90%. Also, the IC50 in data set [3] is 71 ± 6 nM. Besides, in data set [4], the IC50 amounted to 67 ± 6 nM. This compound returned a GI50 in data set [5] (Homo sapiens) of 70 nM. Besides, in data set [6], the IC50 was determined as 70 ± 6 nM.
`COc1ccc2[nH]c(=O)c(/C=N/c3nc(-c4ccccc4)n[nH]3)c(O)c2c1` [Compound 3c, (E)-4-hydroxy-6-methoxy-3-(((3-phenyl-1H-1,2,4-triazol-5-yl)imino)methyl) quinolin-2(1H)-one] returned a melting point of 330 to 332 °C. Moreover, in data set [1], the IC50 is 54 ± 5 nM. In data set [2], this compound displayed a viability at 96 h, 50 µM of 87%. Also, in data set [3], the IC50 stood at 52 ± 4 nM. In addition, the IC50 in data set [4] turned out to be 46 ± 4 nM. The compound also showed a GI50 in data set [5] (Homo sapiens) of 51 nM. For the same compound, the IC50 in data set [6] is 50 ± 5 nM.
`Cn1c(=O)c(/C=N/c2nc(-c3ccccc3)n[nH]2)c(O)c2ccccc21` [Compound 3d, (E)-4-hydroxy-1-methyl-3-(((3-phenyl-1H-1,2,4-triazol-5-yl)imino)methyl)quinolin-2(1H)-one]: the melting point is 295 to 297 °C. The concentration for half-maximal inhibition (IC50) in data set [1] is 76 ± 7 nM. Also, in data set [2], the viability at 96 h, 50 µM is 89%. In addition, the IC50 in data set [3] came to 77 ± 7 nM. In addition, the IC50 in data set [4] was determined as 74 ± 7 nM. In data set [5] (Homo sapiens), it took 76 nM to inhibit growth by half (GI50). Moreover, the IC50 in data set [6] was 76 ± 7 nM.
With `Cc1ccc2[nH]c(=O)c(/C=N/c3nc(-c4ccncc4)n[nH]3)c(O)c2c1` [Compound 3f, (E)-4-hydroxy-6-methyl-3-(((3-(pyridin-4-yl)-1H-1,2,4-triazol-5-yl)imino)methyl) quinolin-2(1H)-one], the concentration for half-maximal inhibition (IC50) is 65 ± 6 nM in data set [1], 64 ± 6 nM in data set [3], 59 ± 5 nM in data set [4] and 62 ± 6 nM in data set [6]. Further, the viability at 96 h, 50 µM in data set [2] is 90%. In addition, in data set [5] (Homo sapiens), halving of growth (GI50) required 63 nM.
With `COc1ccc2[nH]c(=O)c(/C=N/c3nc(-c4ccncc4)n[nH]3)c(O)c2c1` [Compound 3g, (E)-4-hydroxy-6-methoxy-3-(((3-(pyridin-4-yl)-1H-1,2,4-triazol-5-yl)imino)methyl) quinol-in-2(1H)-one], the IC50 in data set [1] was determined as 64 ± 6 nM; in data set [3], 66 ± 6 nM; in data set [4], 60 ± 6 nM; in data set [6] it was 64 ± 6 nM. Also, in data set [2], the viability at 96 h, 50 µM stood at 89%. Further, the GI50 in data set [5] (Homo sapiens) worked out at 82 nM; in data set [5], 64 nM.
Take `Cn1c(=O)c(/C=N/c2nc(-c3ccncc3)n[nH]2)c(O)c2ccccc21` [Compound 3h, (E)-4-hydroxy-1-methyl-3-(((3-(pyridin-4-yl)-1H-1,2,4-triazol-5-yl)imino)methyl) quinolin-2(1H)-one]: the melting point is 310 to 312 °C. In addition, in data set [1], the IC50 was found to be 86 ± 8 nM. Also, the viability at 96 h, 50 µM in data set [2] stood at 85%. Besides, in data set [3], the IC50 amounted to 82 ± 8 nM. Further, the IC50 in data set [4] was 78 ± 7 nM. This compound also registered a GI50 in data set [5] (Homo sapiens) of 82 nM. Besides, the IC50 in data set [6] amounted to 82 ± 8 nM.
`COc1ccc2[nH]c(=O)c(C=Nc3ccc(NS(=O)(=O)c4ncccn4)cc3)c(O)c2c1` [Compound 5c, N-(4-(((4-hydroxy-6-methoxy-2-oxo-1,2-dihydroquinolin-3-yl)methylene)amino)phenyl)pyrimidine-2-sulfonamide]: the IC50 came to 54 ± 5 nM in data set [1], 55 ± 5 nM in data set [3], 49 ± 4 nM in data set [4] and 53 ± 5 nM in data set [6]. In data set [2], this compound came in with a viability at 96 h, 50 µM of 86%. In data set [5] (Homo sapiens), this compound yielded a 50% growth inhibitory concentration (GI50) of 53 nM.
